Data from patent publication US12721835B2, “Anticoccidial composition comprising violacein, and use thereof” (CJ CHEILJEDANG CORPORATION, priority 2020, dated 2026).

How the values were obtained:
Type in all cases: cell-based
Eimeria maxima = assay: Protozoan (sporozoite) direct killing effect; details: tested 1 to 500 ppm, vs PBS control
Method: (§1) In the present example, protozoan (sporozoite) direct killing ability evaluation was conducted against 3 representative Eimeria kinds known to be infected in most farms (E. tenella, E. acervulina, E. maxima).
(§2) A certain amount of oocysts of each coccidial protozoan was put in a tube containing glass beads and pulverized, and then to remove the crushed oocyst cell wall and other debris, internal sporocysts were purified using the percoll density gradient, and washed with PBS solution. A reagent comprising sodium taurocholic acid (Sigma aldrich, USA) and trypsin (Gibco, USA), respectively, was treated to sporocysts of Eimeria tenella, Eimeria acervulina and Eimeria maxima for excystation of the internal sporozoites, and they were incubated, and then they were washed with PBS solution once and the protozoa were obtained.
(§3) After reacting the violacein and anticoccidial agents, salinomycin, diclazuril and gallic acid (hereinafter, material) with 3 kinds of Eimeria protozoa at various concentrations of 1 to 500 ppm, respectively, only alive protozoa (sporozoites) were counted through microscopic observation. […]

Eimeria acervulina = assay: Protozoan (sporozoite) direct killing effect; details: tested 1 to 500 ppm, vs PBS control
Method: as §1, §2, §3

Eimeria tenella [1] = assay: Protozoan (sporozoite) direct killing effect; details: tested 1 to 500 ppm, vs PBS control
Method: as §1, §2, §3

Eimeria tenella [2] = assay: Cell invasion inhibition of protozoa in MDBK cells (ITS-1 PCR); details: read-out: Cell invasion inhibitory effect of protozoa (%)
Method: (§4) In the present example, using MDBK cell line which is a representative animal cell known to cause Eimeria infection and propagation, the inhibition ability of intracellular protozoan invasion and intracellular protozoal propagation of the violacein was investigated.
100,000 MDBK cells (purchased from ATCC) were aliquoted in a 24-well plate, and then incubated at a temperature of 37° C. for 12 hours. The protozoan of Eimeria tenella was obtained similar to the method of Example 3 above. 200,000 protozoa per one well were added to wells in which cells were aliquoted, and each material (violacein and anticoccidial agents, salinomycin, diclazuril and gallic acid) was treated to the cells by concentration, and cultured at a temperature of 41° C. for 24 hours. A negative control group is a MDBK cell infected by protozoa of Eimeria tenella, and a positive control group means a group in which salinomycin, diclazuril or gallic acid solution was incubated with the Eimeria tenella protozoan. […] After removing the cells and protozoa inside the cells through pipetting, DNA was extracted from the cells, and PCR was performed using E. tenella ITS-1 (Internal transcribed spacer-1) gene-specific primers. The sequences of the used primers were described in Table 9 below.
Ct values before/after washing for each material were compared and corrected with the ΔCt value of the negative control group to calculate the cell invasion inhibition rate (%) of the protozoa through treatment of each material, and the result was shown in FIG. 3 and Table 10 below.

Eimeria tenella [3] = assay: Intracellular protozoan propagation inhibition in MDBK cells (ITS-1 PCR); details: read-out: Intracellular protozoan propagation inhibitory effect (%)
Method: as §4
100,000 MDBK cells (purchased from ATCC) were aliquoted in a 24-well plate, and then incubated at a temperature of 37° C. for 12 hours. The protozoan of Eimeria tenella was obtained similar to the method of Example 3 above. 200,000 protozoa per one well were added to wells in which cells were aliquoted, and cultured at a temperature of 41° C. for 24 hours, and then the cells were washed using PBS solution twice to remove protozoa which were not attached to the cells. Each material (violacein and anticoccidial agents, salinomycin, diclazuril and gallic acid) was treated to the cells by concentration, and further cultured at a temperature of 41° C. for 24 hours. A negative control group is a MDBK cell infected by protozoa, and a positive control group means a group in which salinomycin and diclazuril solution was incubated with the Eimeria tenella protozoan. After removing the cells and protozoa inside the cells through pipetting, DNA was extracted from the cells, and PCR was performed using E. tenella ITS-1 (Internal transcribed spacer-1) gene-specific primers. The sequences of the used primers were described in Table 9 above.
The intracellular protozoan propagation inhibition rate (%) through treatment of the material was calculated by comparing Ct values in the material treatment groups compared to the negative control group, and the result was shown in FIG. 3 and Table 10.

[4] = test system: Eimeria maxima (E. maxima) protozoa (sporozoites); assay: Acid resistance of violacein: protozoal death rate after acid exposure
Method: In the present example, the acid resistance of the violacein was to be evaluated. […] Then, it was neutralized (pH 7.0) by adding sodium hydroxide (NaOH) solution, and 200,000 Eimeria maxima (E. maxima) protozoa (sporozoites) were exposed to the violacein at various concentrations of 0.1 to 100 ppm diluted using PBS solution, and they were reacted at a temperature of 41° C. for 4 hours. In Table 11, the control group means a violacein treatment group without treating the acidic condition, and the protozoa alone means a group to which violacein was not treated.

## CC[C@@H](C(=O)[C@@H](C)[C@@H](O)[C@H](C)[C@@H]1O[C@@H]([C@@H](CC)C(=O)O)CC[C@@H]1C)[C@H]1O[C@]2(C=C[C@@H](O)[C@]3(CC[C@@](C)([C@H]4CC[C@](O)(CC)[C@H](C)O4)O3)O2)[C@H](C)C[C@@H]1C [Salinomycin, salinomycin, reference compound]
Eimeria maxima
  Minimum concentration for killing 50% protozoa (sporozoites) (ppm): 500 ppm
Eimeria acervulina
  Minimum concentration for killing 50% protozoa (sporozoites) (ppm): 250 ppm
Eimeria tenella [1]
  Minimum concentration for killing 50% protozoa (sporozoites) (ppm): 500 ppm
Eimeria tenella [2]; MDBK, 24 h
  inhibition at 5 ppm: 50.1%
  inhibition at 10 ppm: 56.4%
Eimeria tenella [3]; MDBK, 24 h
  inhibition at 5 ppm: 32.2%
  inhibition at 10 ppm: 34.8%

## O=C1N=c2ccccc2=C1c1cc(-c2c[nH]c3ccc(O)cc23)[nH]c1O [Violacein, 3-(2-(5-Hydroxyindol-3-yl)-5-oxo-2-pyrrolin-4-ylidene)-2-indolinone]
Eimeria maxima
  Minimum concentration for killing 50% protozoa (sporozoites) (ppm): 5 ppm
Eimeria acervulina
  Minimum concentration for killing 50% protozoa (sporozoites) (ppm): 3.9 ppm
Eimeria tenella [1]
  Minimum concentration for killing 50% protozoa (sporozoites) (ppm): 0.63 ppm
Eimeria tenella [2]; MDBK cells, 0.5 ppm, 41° C. 24 hours
  inhibition at 0.5 ppm: 59.5%
Eimeria tenella [2]; MDBK cells, 1 ppm, 41° C. 24 hours
  inhibition at 1 ppm: 78.6%
[4]; Control group (no acidic condition), 0.1 ppm
  Death rate according to violacein treatment condition: 64%
[4]; Control group (no acidic condition), 1 ppm
  Death rate according to violacein treatment condition: 85%
[4]; Control group (no acidic condition), 10 ppm
  Death rate according to violacein treatment condition: 100%
[4]; Control group (no acidic condition), 100 ppm, 41° C. 4 hours
  Death rate according to violacein treatment condition: 100.00%
[4]; acidic pH, 40° C., 1 hour, then neutralized
  Acid resistance (killing efficacy after strong acidic condition): did not lose the killing efficacy
[4]; pH 2, 1 h, 0.1 ppm
  Death rate according to violacein treatment condition: 64%
[4]; pH 2, 1 h, 1 ppm
  Death rate according to violacein treatment condition: 84%
[4]; pH 2, 1 h, 10 ppm
  Death rate according to violacein treatment condition: 99%
[4]; pH 2, 1 h, 100 ppm
  Death rate according to violacein treatment condition: 100.00%
[4]; pH 2.5, 1 h, 0.1 ppm
  Death rate according to violacein treatment condition: 61%
[4]; pH 2.5, 1 h, 1 ppm
  Death rate according to violacein treatment condition: 83%
[4]; pH 2.5, 1 h, 10 ppm
  Death rate according to violacein treatment condition: 99%
[4]; pH 2.5, 1 h, 100 ppm
  Death rate according to violacein treatment condition: 100.00%
[4]; pH 3, 1 h, 0.1 ppm
  Death rate according to violacein treatment condition: 63%
[4]; pH 3, 1 h, 1 ppm
  Death rate according to violacein treatment condition: 86%
[4]; pH 3, 1 h, 10 ppm
  Death rate according to violacein treatment condition: 99%
[4]; pH 3, 1 h, 100 ppm
  Death rate according to violacein treatment condition: 100.00%
Eimeria tenella [3]; MDBK cells, 0.5 ppm, treated after invasion, 24 hours
  inhibition at 0.5 ppm: 53.7%
Eimeria tenella [3]; MDBK cells, 1 ppm, treated after invasion, 24 hours
  inhibition at 1 ppm: 45.8%
